Data on 15 molecules can be found in the NIST ThermoML archive (doi:10.1021/acs.jced.8b00601).

The nature of this data set: activity coefficient (dimensionless); of the first substance listed, at infinite dilution; xn = mol fraction of the nth substance listed. The following applies: 101.33 kPa, Liquid, Chromatography, x1 = 0.

Numbers after ± are expanded uncertainties.

Regarding `CCCC(C)=O` [pentan-2-one] + O=S(=O)([N-]S(=O)(=O)C(F)(F)F)C(F)(F)F.O=S(=O)([N-]S(=O)(=O)C(F)(F)F)C(F)(F)F.O=S(=O)([N-]S(=O)(=O)C(F)(F)F)C(F)(F)F.c1ccc2cc(-n3cc[n+](Cc4cc(C[n+]5ccn(-c6ccc7ccccc7c6)c5)cc(C[n+]5ccn(-c6ccc7ccccc7c6)c5)c4)c3)ccc2c1, the activity coefficient (313 K) was determined as 0.54 ± 0.062, the activity coefficient (323 K) was found to be 0.441 ± 0.053, the activity coefficient (333 K) is 0.365 ± 0.045 and the activity coefficient (343 K) is 0.341 ± 0.042.

`Cc1cccc(C)c1` [1,3-dimethylbenzene] + O=S(=O)([N-]S(=O)(=O)C(F)(F)F)C(F)(F)F.O=S(=O)([N-]S(=O)(=O)C(F)(F)F)C(F)(F)F.O=S(=O)([N-]S(=O)(=O)C(F)(F)F)C(F)(F)F.c1ccc2cc(-n3cc[n+](Cc4cc(C[n+]5ccn(-c6ccc7ccccc7c6)c5)cc(C[n+]5ccn(-c6ccc7ccccc7c6)c5)c4)c3)ccc2c1: the activity coefficient reads like this: (313 K) 3.42 ± 0.42; (323 K) 2.31 ± 0.31; (333 K) 1.52 ± 0.19; (343 K) 1.26 ± 0.14.

Consider `C1CCCCC1` [cyclohexane] + O=S(=O)([N-]S(=O)(=O)C(F)(F)F)C(F)(F)F.O=S(=O)([N-]S(=O)(=O)C(F)(F)F)C(F)(F)F.O=S(=O)([N-]S(=O)(=O)C(F)(F)F)C(F)(F)F.c1ccc2cc(-n3cc[n+](Cc4cc(C[n+]5ccn(-c6ccc7ccccc7c6)c5)cc(C[n+]5ccn(-c6ccc7ccccc7c6)c5)c4)c3)ccc2c1, for which the activity coefficient (313 K) was determined as 11.7 ± 1.3, the activity coefficient (323 K) amounted to 9.16 ± 1, the activity coefficient (333 K) is 8.09 ± 0.9 and the activity coefficient (343 K) amounted to 6.25 ± 0.75.

Take `CCCC=O` [butanal] + O=S(=O)([N-]S(=O)(=O)C(F)(F)F)C(F)(F)F.O=S(=O)([N-]S(=O)(=O)C(F)(F)F)C(F)(F)F.O=S(=O)([N-]S(=O)(=O)C(F)(F)F)C(F)(F)F.c1ccc2cc(-n3cc[n+](Cc4cc(C[n+]5ccn(-c6ccc7ccccc7c6)c5)cc(C[n+]5ccn(-c6ccc7ccccc7c6)c5)c4)c3)ccc2c1: the activity coefficient by setting is: (313 K) 0.425 ± 0.049; (323 K) 0.415 ± 0.048; (333 K) 0.396 ± 0.047; (343 K) 0.324 ± 0.043.

`CCOC(C)=O` [ethyl acetate] + O=S(=O)([N-]S(=O)(=O)C(F)(F)F)C(F)(F)F.O=S(=O)([N-]S(=O)(=O)C(F)(F)F)C(F)(F)F.O=S(=O)([N-]S(=O)(=O)C(F)(F)F)C(F)(F)F.c1ccc2cc(-n3cc[n+](Cc4cc(C[n+]5ccn(-c6ccc7ccccc7c6)c5)cc(C[n+]5ccn(-c6ccc7ccccc7c6)c5)c4)c3)ccc2c1: the activity coefficient (313 K) was determined as 1.02 ± 0.11, the activity coefficient (323 K) came to 0.776 ± 0.093, the activity coefficient (333 K) was found to be 0.544 ± 0.068 and the activity coefficient (343 K) stood at 0.443 ± 0.054.

On to `CCCO` [propan-1-ol] + O=S(=O)([N-]S(=O)(=O)C(F)(F)F)C(F)(F)F.O=S(=O)([N-]S(=O)(=O)C(F)(F)F)C(F)(F)F.O=S(=O)([N-]S(=O)(=O)C(F)(F)F)C(F)(F)F.c1ccc2cc(-n3cc[n+](Cc4cc(C[n+]5ccn(-c6ccc7ccccc7c6)c5)cc(C[n+]5ccn(-c6ccc7ccccc7c6)c5)c4)c3)ccc2c1, for which the activity coefficient runs as follows: (313 K) 1.4 ± 0.16; (323 K) 1.1 ± 0.13; (333 K) 0.842 ± 0.094; (343 K) 0.73 ± 0.079.

For the molecule `ClC(Cl)(Cl)Cl` [tetrachloromethane] + O=S(=O)([N-]S(=O)(=O)C(F)(F)F)C(F)(F)F.O=S(=O)([N-]S(=O)(=O)C(F)(F)F)C(F)(F)F.O=S(=O)([N-]S(=O)(=O)C(F)(F)F)C(F)(F)F.c1ccc2cc(-n3cc[n+](Cc4cc(C[n+]5ccn(-c6ccc7ccccc7c6)c5)cc(C[n+]5ccn(-c6ccc7ccccc7c6)c5)c4)c3)ccc2c1, the activity coefficient (313 K) turned out to be 4.72 ± 0.51, the activity coefficient (323 K) stood at 4.27 ± 0.47, the activity coefficient (333 K) was 3.29 ± 0.38 and the activity coefficient (343 K) came out at 2.6 ± 0.31.

Regarding `O=Cc1ccccc1` [benzaldehyde] + O=S(=O)([N-]S(=O)(=O)C(F)(F)F)C(F)(F)F.O=S(=O)([N-]S(=O)(=O)C(F)(F)F)C(F)(F)F.O=S(=O)([N-]S(=O)(=O)C(F)(F)F)C(F)(F)F.c1ccc2cc(-n3cc[n+](Cc4cc(C[n+]5ccn(-c6ccc7ccccc7c6)c5)cc(C[n+]5ccn(-c6ccc7ccccc7c6)c5)c4)c3)ccc2c1, the activity coefficient by setting is: (313 K) 1 ± 0.1; (323 K) 0.999 ± 0.1; (333 K) 1 ± 0.1; (343 K) 1 ± 0.1.

As to `Cc1ccc(C)cc1` [1,4-dimethylbenzene] + O=S(=O)([N-]S(=O)(=O)C(F)(F)F)C(F)(F)F.O=S(=O)([N-]S(=O)(=O)C(F)(F)F)C(F)(F)F.O=S(=O)([N-]S(=O)(=O)C(F)(F)F)C(F)(F)F.c1ccc2cc(-n3cc[n+](Cc4cc(C[n+]5ccn(-c6ccc7ccccc7c6)c5)cc(C[n+]5ccn(-c6ccc7ccccc7c6)c5)c4)c3)ccc2c1, the activity coefficient (313 K) came out at 4.47 ± 0.56, the activity coefficient (323 K) was 2.94 ± 0.39, the activity coefficient (333 K) was determined as 2.09 ± 0.26 and the activity coefficient (343 K) was found to be 1.51 ± 0.2.

With `CC(C)O` [propan-2-ol] + O=S(=O)([N-]S(=O)(=O)C(F)(F)F)C(F)(F)F.O=S(=O)([N-]S(=O)(=O)C(F)(F)F)C(F)(F)F.O=S(=O)([N-]S(=O)(=O)C(F)(F)F)C(F)(F)F.c1ccc2cc(-n3cc[n+](Cc4cc(C[n+]5ccn(-c6ccc7ccccc7c6)c5)cc(C[n+]5ccn(-c6ccc7ccccc7c6)c5)c4)c3)ccc2c1, the activity coefficient (313 K) was found to be 1.89 ± 0.24, the activity coefficient (323 K) was found to be 1.24 ± 0.16, the activity coefficient (333 K) came out at 0.965 ± 0.11 and the activity coefficient (343 K) amounted to 0.693 ± 0.091.

Regarding `Cc1ccccc1` [toluene] + O=S(=O)([N-]S(=O)(=O)C(F)(F)F)C(F)(F)F.O=S(=O)([N-]S(=O)(=O)C(F)(F)F)C(F)(F)F.O=S(=O)([N-]S(=O)(=O)C(F)(F)F)C(F)(F)F.c1ccc2cc(-n3cc[n+](Cc4cc(C[n+]5ccn(-c6ccc7ccccc7c6)c5)cc(C[n+]5ccn(-c6ccc7ccccc7c6)c5)c4)c3)ccc2c1, the activity coefficient is 3.82 ± 0.43 (313 K), 3.05 ± 0.35 (323 K), 2.42 ± 0.29 (333 K) and 1.69 ± 0.23 (343 K).

Regarding `ClCCCl` [1,2-dichloroethane] + O=S(=O)([N-]S(=O)(=O)C(F)(F)F)C(F)(F)F.O=S(=O)([N-]S(=O)(=O)C(F)(F)F)C(F)(F)F.O=S(=O)([N-]S(=O)(=O)C(F)(F)F)C(F)(F)F.c1ccc2cc(-n3cc[n+](Cc4cc(C[n+]5ccn(-c6ccc7ccccc7c6)c5)cc(C[n+]5ccn(-c6ccc7ccccc7c6)c5)c4)c3)ccc2c1, the activity coefficient worked out at 0.758 ± 0.079 (313 K), 0.738 ± 0.077 (323 K), 0.677 ± 0.071 (333 K) and 0.679 ± 0.071 (343 K).

Consider `Cc1ccccc1C` [1,2-dimethylbenzene] + O=S(=O)([N-]S(=O)(=O)C(F)(F)F)C(F)(F)F.O=S(=O)([N-]S(=O)(=O)C(F)(F)F)C(F)(F)F.O=S(=O)([N-]S(=O)(=O)C(F)(F)F)C(F)(F)F.c1ccc2cc(-n3cc[n+](Cc4cc(C[n+]5ccn(-c6ccc7ccccc7c6)c5)cc(C[n+]5ccn(-c6ccc7ccccc7c6)c5)c4)c3)ccc2c1, for which the activity coefficient (313 K) turned out to be 3.35 ± 0.41, the activity coefficient (323 K) turned out to be 2.25 ± 0.3, the activity coefficient (333 K) was found to be 1.54 ± 0.2 and the activity coefficient (343 K) came to 1.04 ± 0.14.

Consider `CCCCCCCC` [octane] + O=S(=O)([N-]S(=O)(=O)C(F)(F)F)C(F)(F)F.O=S(=O)([N-]S(=O)(=O)C(F)(F)F)C(F)(F)F.O=S(=O)([N-]S(=O)(=O)C(F)(F)F)C(F)(F)F.c1ccc2cc(-n3cc[n+](Cc4cc(C[n+]5ccn(-c6ccc7ccccc7c6)c5)cc(C[n+]5ccn(-c6ccc7ccccc7c6)c5)c4)c3)ccc2c1, for which the activity coefficient is, setting by setting: (313 K) 28.4 ± 3.5; (323 K) 19.4 ± 2.5; (333 K) 14.1 ± 1.8; (343 K) 9.43 ± 1.4.

On to `c1ccncc1` [pyridine] + O=S(=O)([N-]S(=O)(=O)C(F)(F)F)C(F)(F)F.O=S(=O)([N-]S(=O)(=O)C(F)(F)F)C(F)(F)F.O=S(=O)([N-]S(=O)(=O)C(F)(F)F)C(F)(F)F.c1ccc2cc(-n3cc[n+](Cc4cc(C[n+]5ccn(-c6ccc7ccccc7c6)c5)cc(C[n+]5ccn(-c6ccc7ccccc7c6)c5)c4)c3)ccc2c1, for which the activity coefficient (323 K) was 0.164 ± 0.031, the activity coefficient (333 K) was found to be 0.173 ± 0.032 and the activity coefficient (343 K) stood at 0.198 ± 0.033.
